Data on 39 molecules can be found in patent publication US4837316A, “Alkylamide derivatives with H2 -receptor antagonistic and cytoprotective action” (Fujirebio Kabushiki Kaisha, priority 1985, dated 1989).

The target of assay [1] is T1, Histamine H2-receptor (Cavia porcellus, UniProt P47747).
T1 construct: the right atrium was isolated rapidly; from tissue; host or cells: guinea pig right atrium (isolated organ)
The assay is described as follows: Histamine H2-receptor antagonistic action (isolated right atrium, histamine response). The conditions noted are these: isolated guinea-pig right atrium, 32° C., tested compound 1×10^-6 M or 1×10^-7 M, Van Rossum method; for Kb: read-out: pA2 (converted). As to the method: Histamine H2 -receptor antagonistic actions of the exemplified compounds were measured. Male Guinea-Pig weighing 300 to 350 g was killed by a blow on the head. After thoracotomy, the right atrium was isolated rapidly, and the surrounding tissues of the right atrium was carefully dissected. The preparation was mounted isometrically in 30 ml organ bath containing an oxygenated (O2 95%+CO2 5%) Krebs-Henselite solution at 32° C. 1 g of resting tension was loaded through the experiment. Contraction of the right atrium to histamine was measured with a force-displacement transducer, and heart rate was measured with a heart rate meter. After the control dose-response curve in the presence of tested compound (1×10^-6 M or 1×10^-7 M) was determined.
The pA2 value of each compound was determined from these two curves by the method of J. M. Van Rossum (Arch. Int. Pharmacodyn. Ther 143-299 (1963)).

For assay [2], the system named is gastric mucosal leasion. Briefly: Cytoprotective action (gastric mucosal lesion by necrotizing agent 0.4N HCl+50% EtOH). In kind it is in vivo, Male Donryu rats. The note with it: Rattus norvegicus, po; 10 mg/kg P.O., 30 minutes before 5 ml/kg 0.4N HCl+50% EtOH; stomach taken 1 hour after; read-out: Repression % (inhibition % of total area of gastric mucosal leasion vs control). As to the method: Cytoprotective actions of the exemplified compounds were examined.
Male Donryu rats weighing 150-250 g were used after fasting for 24 hours. 10 mg/kg P.O. of the test compound was administrated, and 5 ml/kg of a necrotizing agent (0.4N HCl+50% EtOH) was orally administrated after 30 minutes. After 1 hour from the administration of the necrotizing agent, its stomach was dissected out, and fixed with formalin. Total area of gastric mucosal leasion was measured, and compared with a control group to determine inhibition %.

T1 sequence (P47747 whole entry): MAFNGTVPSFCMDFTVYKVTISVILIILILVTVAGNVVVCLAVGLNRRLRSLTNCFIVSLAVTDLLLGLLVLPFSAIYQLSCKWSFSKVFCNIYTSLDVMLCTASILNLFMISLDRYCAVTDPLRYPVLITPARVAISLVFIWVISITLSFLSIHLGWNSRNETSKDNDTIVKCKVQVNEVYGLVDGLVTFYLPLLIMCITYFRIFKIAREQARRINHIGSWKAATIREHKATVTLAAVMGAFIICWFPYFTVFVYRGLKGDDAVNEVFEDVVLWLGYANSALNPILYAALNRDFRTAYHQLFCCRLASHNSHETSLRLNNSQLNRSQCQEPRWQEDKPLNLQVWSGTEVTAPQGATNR

As for `O=C(CSCc1ccccc1)NCCCOc1cccc(CN2CCCCC2)c1` [Compound 1, N-[3-{3-(piperidinomethyl)phenoxy}propyl]-2-(benzylthio)acetamide], the Kb in assay [1] was 31.6 nM. Besides, the inhibition in vivo at 10 mg/kg in assay [2] was 59%. In the case of `COc1ccc(CSCC(=O)NCCCOc2cccc(CN3CCCCC3)c2)cc1` [Compound 12, N-[3-{3-(piperidinomethyl)phenoxy}propyl]-2-(4-methoxybenzylthio)acetamide], in assay [1], the Kb is 50.1 nM. As to `O=C(CSCCCc1ccccc1)NCCCOc1cccc(CN2CCCCC2)c1` [Compound 14, N-[3-{3-(piperidinomethyl)phenoxy}propyl]-2-(3-phenylpropyl-1-thio)acetamide], in assay [2], the inhibition in vivo at 10 mg/kg came out at 55%. Regarding `O=C(CSCC1CCCCC1)NCCCOc1cccc(CN2CCCCC2)c1` [Compound 16, N-[3-{3-(piperidinomethyl)phenoxy}propyl]-2-(cyclohexylmethylthio)acetamide], the Kb in assay [1] is 12.6 nM. With `O=C(CSCc1ccco1)NCCCOc1cccc(CN2CCCCC2)c1` [Compound 19, N-[3-{3-(piperidinomethyl)phenoxy}propyl]-2-(furfurylthio)acetamide], the Kb in assay [1] was 50.1 nM. In addition, the inhibition in vivo at 10 mg/kg in assay [2] turned out to be 63%. For the molecule `O=C(CSCc1cccs1)NCCCOc1cccc(CN2CCCCC2)c1` [Compound 20], the inhibition in vivo at 10 mg/kg in assay [2] turned out to be 45%.

Regarding `O=C(CSCc1ccc2ccccc2c1)NCCCOc1cccc(CN2CCCCC2)c1` [Compound 21, N-[3-{3-(piperidinomethyl)phenoxy}propyl]-2-(2-naphthylmethylthio)acetamide], the inhibition in vivo at 10 mg/kg in assay [2] was determined as 60%.

On to `O=C(CCCSCc1ccccc1)NCCCOc1cccc(CN2CCCCC2)c1` [Compound 30], for which the inhibition in vivo at 10 mg/kg in assay [2] was 62%. For the molecule `O=C(CCCCCSCc1ccccc1)NCCCOc1cccc(CN2CCCCC2)c1` [Compound 35, N-[3-{3-(piperidinomethyl)phenoxy}propyl]-6-(benzylthio)hexylamide], the inhibition in vivo at 10 mg/kg in assay [2] was found to be 61%. As to `O=C(C[S+]([O-])Cc1ccccc1)NCCCOc1cccc(CN2CCCCC2)c1` (centres unmarked) [Compound 44, N-[3-{3-(piperidinomehtyl)phenoxy}propyl]-2-(benzylsulfinyl)acetamide], the Kb in assay [1] is 251 nM. The inhibition in vivo at 10 mg/kg in assay [2] was found to be 73%. Take `O=C(CS(=O)(=O)Cc1ccccc1)NCCCOc1cccc(CN2CCCCC2)c1` [Compound 45, N-[3-{3-(piperidinomethyl)phenoxy}propyl]-2-(benzylsulfonyl)acetamide]: the inhibition in vivo at 10 mg/kg in assay [2] was 72%. The same measure, in the same setting: in the case of `O=C(C[S+]([O-])Cc1ccco1)NCCCOc1cccc(CN2CCCCC2)c1` (centres unmarked) [Compound 46, N-[3-[3-(piperidinomethyl)phenoxy}propyl]-2-(furfurylsulfinyl)acetamide] it was 72%; in that of `O=C(CS(=O)(=O)Cc1ccco1)NCCCOc1cccc(CN2CCCCC2)c1` [Compound 47, N-[3-[3-(piperidinomethyl)phenoxy]propyl]-2-(furfurylsulfonyl)acetamide], 85%. With `O=C(CSCc1ccc(C(=O)O)cc1)NCCCOc1cccc(CN2CCCCC2)c1` [Compound 48, N-[3-{3-(piperidinomethyl)phenoxy}propyl]-2-(4-carboxylbenzylthio)acetamide], in assay [1], the Kb is 31.6 nM. For `O=C(CSCc1ccoc1)NCCCOc1cccc(CN2CCCCC2)c1` [Compound 57, N-[3-{3-(piperidinomethyl)phenoxy}propyl]-2-(3-furylmethylthio)acetamide], the Kb in assay [1] is 31.6 nM. The inhibition in vivo at 10 mg/kg in assay [2] turned out to be 69%. In the case of `CC(SCC(=O)NCCCOc1cccc(CN2CCCCC2)c1)c1ccco1` (centres unmarked) [Compound 58, N-[3-{3-(piperidinomethyl)phenoxy}propyl]-2-{1-(2-furyl)ethylthio}acetamide], the Kb in assay [1] is 31.6 nM.

In the case of `Cc1ccc(CSCC(=O)NCCCOc2cccc(CN3CCCCC3)c2)o1` [Compound 69, N-[3-{3-(piperidinomethyl)phenoxy}propyl]-2-(5-methyl-furfurylthio)acetamid], the Kb in assay [1] is 3.98 nM. For the same molecule, the inhibition in vivo at 10 mg/kg in assay [2] is 59%. In the same order, the values of `CC1CCN(Cc2cccc(OCCCNC(=O)CS(=O)(=O)Cc3ccoc3)c2)CC1` [Compound 72] are 100 nM and 60%. In the same order, the values of `CC1CCCN(Cc2cccc(OCCCNC(=O)CS(=O)(=O)Cc3ccoc3)c2)C1` (centres unmarked) [Compound 73] are 50.1 nM and 88%. As for `CC1CCCCN1Cc1cccc(OCCCNC(=O)CS(=O)(=O)Cc2ccoc2)c1` (centres unmarked) [Compound 74], the Kb in assay [1] was 631 nM. Further, the inhibition in vivo at 10 mg/kg in assay [2] was 50%. Take `COC(=O)c1ccc(CSCC(=O)NCCCOc2cccc(CN3CCCCC3)c2)o1` [Compound 75, N-[3-{3-(piperidinomethyl)phenoxy}propyl]-2-{(5-methoxycarbonyl)furfurylthio}acetamide]: in assay [1], the Kb was 20 nM. Take `COc1ccc(CSCC(=O)NCCCOc2cccc(CN3CCCCC3)c2)nc1` [Compound 79]: in assay [1], the Kb was 7.94 nM. For the same molecule, the inhibition in vivo at 10 mg/kg in assay [2] turned out to be 53%. In the same order, the values of `O=C(CSCc1cccc(Cl)n1)NCCCOc1cccc(CN2CCCCC2)c1` [Compound 82, N-[3-{3-(piperidinomethyl)phenoxy}propyl]-2-(6-chloro-2-pyridylmethylthio)acetamide] are 20 nM and 61%. With `Cc1cccc(CSCC(=O)NCCCOc2cccc(CN3CCCCC3)c2)n1` [Compound 86], in assay [1], the Kb is 25.1 nM. In the case of `O=C(CSCc1ccco1)NCCSCc1ccc(CN2CCCCC2)o1` [Compound 89], in assay [2], the inhibition in vivo at 10 mg/kg is 46%.

As for `O=C(CSCc1ccco1)NCCSCc1ccc(C=CCN2CCCC2)s1` [Compound 93], the inhibition in vivo at 10 mg/kg in assay [2] turned out to be 43%.

`O=C(CSCc1ccco1)NCCSCc1ccc(CN2CCCCC2)s1` [Compound 94]: the Kb in assay [1] is 316 nM. For the molecule `O=C(CSCc1ccco1)NCCCOc1cc(CN2CCCCC2)ccn1` [Compound 100], the Kb in assay [1] was 100 nM. Further, the inhibition in vivo at 10 mg/kg in assay [2] was determined as 35%. Take `NC(N)=Nc1nc(CSCCNC(=O)CSCc2ccoc2)cs1` [Compound 104]: in assay [1], the Kb is 200 nM. Further, the inhibition in vivo at 10 mg/kg in assay [2] was found to be 50.6%. As for `NC(N)=Nc1nc(CSCCNC(=O)CSCc2ccccc2)cs1` [Compound 105], the Kb in assay [1] was 79.4 nM. For `NC(N)=Nc1nc(CSCCNC(=O)CSCc2cccs2)cs1` [Compound 106], the Kb in assay [1] was 200 nM.

As to `NC(N)=Nc1nc(CSCCNC(=O)CSCC2CCCCC2)cs1` [Compound 107], the Kb in assay [1] is 794 nM. Also, the inhibition in vivo at 10 mg/kg in assay [2] turned out to be 52.3%.

In the case of `NC(N)=Nc1nc(CSCCNC(=O)CSCc2ccc3ccccc3c2)cs1` [Compound 108], in assay [2], the inhibition in vivo at 10 mg/kg was 51.2%.

As for `NC(N)=Nc1nc(CSCCNC(=O)CSCc2ccccn2)cs1` [Compound 109], the pA2 in assay [1] is 7.6. Turning to `NC(N)=Nc1nc(CSCCNC(=O)CSCc2ccco2)cs1` [Compound 110], the Kb in assay [1] was 79.4 nM. Moreover, the inhibition in vivo at 10 mg/kg in assay [2] was determined as 58%. `Cc1ccc(CSCC(=O)NCCCOc2cccc(CN3CCCCC3)c2)s1` [Compound 112, N-[3-{3-(piperidinomethyl)phenoxy}propyl]-2-{(5methyl-2-thienyl)methylthio}acetamide]: the Kb in assay [1] was 15.8 nM. With `O=C(CSCc1ccc(Cl)s1)NCCCOc1cccc(CN2CCCCC2)c1` [Compound 113, N-[3-{(piperidinomethyl)phenoxy}propyl]-2-{(5-chloro-2-thienyl)methylthio}acetamide], the Kb in assay [1] is 25.1 nM. With `O=C(CSCc1ccsc1Cl)NCCCOc1cccc(CN2CCCCC2)c1` [Compound 114, N-[3-{3-(piperidinomethyl)phenoxy}propyl]-2-{(2-chloo-3-thienyl)methylthio}acetamide], in assay [1], the Kb was 39.8 nM. As to `CC(=O)Nc1ccsc1CSCC(=O)NCCCOc1cccc(CN2CCCCC2)c1` [Compound 116, N-[3-{3-(piperidinomethyl)phenoxy}propyl]-2-{(3-acetamide-2-thienyl)methylthio}acetamide], the Kb in assay [1] is 31.6 nM.

One may read the pA2 as the negative logarithm of the molar antagonist concentration that doubles the agonist concentration needed for the same response. Low readings indicate lower antagonist potency, high ones higher antagonist potency.
